Assay results: PubChem BioAssay AID2060329 (Molecular Pharmacology Branch, DTP, NCI, 2025)

Tested on: MCF7 multi-cell spheroids with HUVEC/MSC, viability
Test: Anticancer human tumor MCF7 cell line growth inhibition [IpAb];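 note: spheroids exposed to agents for seven days before readout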
Settings: for IC50: curve of first compound; for viability, T/C: stronger effect = lower value; active = viability on the fitted dose curve at most 10% of control; inactive = the rest
Excerpt: Combinatorial screen of targeted agents with ipatasertib and abemaciclib in multi-cell type tumor spheroids
A high-throughput screen of multi-cell type tumor spheroids was designed to identify active combinations of targeted small molecules and ipatasertib or abemaciclib. Complex spheroids include a stromal component modeled by human endothelial cells (HUVEC) and fibroblasts modeled by human mesenchymal stem cells (MSCs). The concentration ranges selected for each drug and investigational agent were based upon clinically achievable concentrations if the clinical Cmax of the agent was known.
Compounds. The drugs and investigational agents: ipatasertib (NSC767898), abemaciclib(NSC768073), selumetinib (NSC741078), trametinib (758246), adavosertib (NSC754352), everolimus (NSC733504), sapanisertib (NSC764658), vemurafenib (NSC761431), venetoclax (NSC766270), copanlisib (NSC809693), apelisib (NSC765974), palbociblib (NSC758247), vemurafenib (NSC761431), dabrafenib (NSC764134), ravoxertinib (NSC781343), BMS-387032 (NSC767048), sotorasib (NSC818433), talazoparib (NSC767125) and afursertib (NSC778305), were obtained from the National Cancer Institute (NCI) Developmental Therapeutics Program Chemical Repository. The FDA-approved anticancer drug set is available from the NCI Developmental Therapeutics Program. […] The stock solutions were prepared in dimethyl sulfoxide (DMSO, Sigma-Aldrich, St. Louis, MO, cat. D2650) at 800-fold the tested concentration and stored at -70 degrees C prior to their use. All drugs and investigational agents were tested over a range starting from a high concentration at or near the clinical Cmax and decreasing in half-log increments. If the clinical Cmax for an agent had not been determined, the highest concentration tested was 10 microM.
NCI60 Cell Culture. NCI60 cell lines were obtained from the NCI Developmental Therapeutics Program Tumor Repository. For each lot of cells, the Repository performed Applied Biosystems AmpFLSTR Identifiler testing with PCR amplification to confirm consistency with the published Identifier STR profile for each cell line. Cells were kept in continuous culture for no more than 20 passages. The optimal seeding densities for each of the cell lines at each time point assessed were determined prior to performing the concentration response studies. Briefly, the NCI60 human tumor lines were grown as monolayers in RPMI 1640 medium supplemented with 10% FBS and 2 mmol/L L-glutamine.
An additional 9 lines were from the NCI60 cell line panel including MDA-MB-231 breast carcinoma, MDA-MB-468 breast carcinoma, MCF7 breast carcinoma, Hs578T breast carcinoma, MALME-3M melanoma, SK-MEL-2 melanoma, SK-OV-3 ovarian carcinoma, DU-145 prostate carcinoma, PC-3 prostate carcinoma, all cell lines along with major genetic alterations are listed on Table 2. Pooled donor human umbilical vein endothelial cells (HUVEC, Lonza, cat. CC-2519) and human mesenchymal stem cells (hMSC, Lonza, cat. PT-2501) were purchased from Lonza (Walkersville, MD).
PDMR cell lines were grown in complete medium (DC medium): Dulbecco's modified Eagle's medium (DMEM)/F12 supplemented with 5% fetal bovine serum (FBS), 2 mM L-glutamine, 100 U/mL penicillin and 100 µg/ml streptomycin, 0.4 µg/ml hydrocortisone, 10 ng/ml epidermal growth factor (EGF) recombinant human protein, 24 µg/mL adenine, and 0.1 mg/mL primocin. During culture from frozen stock vials, PDMR cells were cultured in the same medium containing 10 µM Y-27632 (see Table 3). The PDCs were cultured in complete DMEM/F12 media without 10 microM Y-27632 dihydrochloride for at least two passages prior to the screen. The pooled donor HUVEC and hMSC were cultured in endothelial cell growth medium 2 (PromoCell, Heidelberg, Germany, cat. C-22011) and mesenchymal stem cell growth medium 2 (PromoCell, cat. C-28009), respectively. For all experiments, HUVEC and hMSC were used at passages </=5.
[…]

[1] = second compound 0.1 µM, first compound 0.0316 µM
[2] = second compound 0.1 µM, first compound 0.1 µM
[3] = second compound 0.1 µM, first compound 0.316 µM
[4] = second compound 0.1 µM, first compound 1 µM
[5] = second compound 0.1 µM, first compound 3.16 µM
[6] = second compound 0.1 µM, first compound 10 µM
[7] = second compound 0.316 µM, first compound 0.0316 µM
[8] = second compound 0.316 µM, first compound 0.1 µM
[9] = second compound 0.316 µM, first compound 0.316 µM
[10] = second compound 0.316 µM, first compound 1 µM
[11] = second compound 0.316 µM, first compound 3.16 µM
[12] = second compound 0.316 µM, first compound 10 µM
[13] = second compound 1 µM, first compound 0.0316 µM
[14] = second compound 1 µM, first compound 0.1 µM
[15] = second compound 1 µM, first compound 0.316 µM
[16] = second compound 1 µM, first compound 1 µM
[17] = second compound 1 µM, first compound 3.16 µM
[18] = second compound 1 µM, first compound 10 µM
[19] = second compound 3.16 µM, first compound 0.0316 µM
[20] = second compound 3.16 µM, first compound 0.1 µM
[21] = second compound 3.16 µM, first compound 0.316 µM
[22] = second compound 3.16 µM, first compound 1 µM
[23] = second compound 3.16 µM, first compound 3.16 µM
[24] = second compound 3.16 µM, first compound 10 µM
[25] = second compound 10 µM, first compound 0.0316 µM
[26] = second compound 10 µM, first compound 0.1 µM
[27] = second compound 10 µM, first compound 0.316 µM
[28] = second compound 10 µM, first compound 1 µM
[29] = second compound 10 µM, first compound 3.16 µM
[30] = second compound 10 µM, first compound 10 µM

C=CCn1c(=O)c2cnc(Nc3ccc(N4CCN(C)CC4)cc3)nc2n1-c1cccc(C(C)(C)O)n1 + CC(C)NCC(C(=O)N1CCN(c2ncnc3c2C(C)CC3O)CC1)c1ccc(Cl)cc1
543 nM: IC50 (second compound 0.1 µM)
inactive: viability, T/C [1] 89.1% | viability, T/C [2] 99.2% | viability, T/C [3] 67.4% | viability, T/C [4] 31.8% | viability, T/C [5] 26.3% | viability, T/C [6] 33% | viability, T/C [7] 77.8% | viability, T/C [8] 80.9% | viability, T/C [9] 49.4% | viability, T/C [10] 37.4% | viability, T/C [11] 23.2% | viability, T/C [12] 27% | viability, T/C [13] 64.2% | viability, T/C [14] 61.6% | viability, T/C [15] 36.5% | viability, T/C [16] 20.9% | viability, T/C [17] 17.7% | viability, T/C [18] 16.4% | viability, T/C [19] 49.6% | viability, T/C [20] 38.2% | viability, T/C [21] 25.5% | viability, T/C [22] 14.6% | viability, T/C [23] 11.2% | viability, T/C [25] 42.4% | viability, T/C [26] 33.2% | viability, T/C [27] 19.4% | viability, T/C [28] 10.6%
169 nM: IC50 (second compound 1 µM)
367 nM: IC50 (second compound 0.316 µM)
< 31.6 nM: IC50 (second compound 3.16 µM) | IC50 (second compound 10 µM)
active: viability, T/C [24] 7.69% | viability, T/C [29] 8.49% | viability, T/C [30] 4.08%

CC(C)n1nc(-c2ccc3oc(N)nc3c2)c2c(N)ncnc21 + CC(C)NCC(C(=O)N1CCN(c2ncnc3c2C(C)CC3O)CC1)c1ccc(Cl)cc1
< 0.316 nM: IC50 (second compound 10 µM)
0.594 nM: IC50 (second compound 3.16 µM)
inactive: viability, T/C (second compound 0.1 µM, first compound 0.000316 µM) 88.7% | viability, T/C (second compound 0.1 µM, first compound 0.001 µM) 92.6% | viability, T/C (second compound 0.1 µM, first compound 0.00316 µM) 77.4% | viability, T/C (second compound 0.1 µM, first compound 0.01 µM) 58.9% | viability, T/C [1] 29.5% | viability, T/C [2] 13.1% | viability, T/C (second compound 0.316 µM, first compound 0.000316 µM) 82.5% | viability, T/C (second compound 0.316 µM, first compound 0.001 µM) 85.9% | viability, T/C (second compound 0.316 µM, first compound 0.00316 µM) 65.4% | viability, T/C (second compound 0.316 µM, first compound 0.01 µM) 50.3% | viability, T/C [7] 17.9% | viability, T/C (second compound 1 µM, first compound 0.000316 µM) 77.5% | viability, T/C (second compound 1 µM, first compound 0.001 µM) 64.8% | viability, T/C (second compound 1 µM, first compound 0.00316 µM) 48.4% | viability, T/C (second compound 1 µM, first compound 0.01 µM) 21.1% | viability, T/C (second compound 3.16 µM, first compound 0.000316 µM) 56.1% | viability, T/C (second compound 3.16 µM, first compound 0.001 µM) 42.6% | viability, T/C (second compound 3.16 µM, first compound 0.00316 µM) 36.5% | viability, T/C (second compound 3.16 µM, first compound 0.01 µM) 9.09% | viability, T/C (second compound 10 µM, first compound 0.000316 µM) 48.4% | viability, T/C (second compound 10 µM, first compound 0.001 µM) 45.5% | viability, T/C (second compound 10 µM, first compound 0.00316 µM) 17.5%
2.59 nM: IC50 (second compound 1 µM)
8.42 nM: IC50 (second compound 0.316 µM)
13.9 nM: IC50 (second compound 0.1 µM)
active: viability, T/C [8] 9.55% | viability, T/C [13] 8.63% | viability, T/C [14] 6.29% | viability, T/C [19] 6.78% | viability, T/C [20] 7.35% | viability, T/C (second compound 10 µM, first compound 0.01 µM) 8.22% | viability, T/C [25] 8.47% | viability, T/C [26] 6.95%

CC1(C)CCC(CN2CCN(c3ccc(C(=O)NS(=O)(=O)c4ccc(NCC5CCOCC5)c([N+](=O)[O-])c4)c(Oc4cnc5[nH]ccc5c4)c3)CC2)=C(c2ccc(Cl)cc2)C1 + CC(C)NCC(C(=O)N1CCN(c2ncnc3c2C(C)CC3O)CC1)c1ccc(Cl)cc1
inactive: viability, T/C [1] 85% | viability, T/C [2] 83.3% | viability, T/C [3] 87.6% | viability, T/C [4] 84.2% | viability, T/C [5] 84.9% | viability, T/C [6] 22.2% | viability, T/C [7] 72.4% | viability, T/C [8] 74.9% | viability, T/C [9] 69.5% | viability, T/C [10] 72.1% | viability, T/C [11] 67.3% | viability, T/C [12] 11.3% | viability, T/C [13] 69.4% | viability, T/C [14] 64.9% | viability, T/C [15] 70.1% | viability, T/C [16] 56.1% | viability, T/C [17] 49.5% | viability, T/C [18] 10.9% | viability, T/C [19] 47.9% | viability, T/C [20] 51.6% | viability, T/C [21] 51.3% | viability, T/C [22] 39.7% | viability, T/C [23] 34.1% | viability, T/C [25] 39.3% | viability, T/C [26] 34.5% | viability, T/C [27] 32.1% | viability, T/C [28] 27.8% | viability, T/C [29] 29.7% | viability, T/C [30] 5.76%
2510 nM: IC50 (second compound 1 µM)
4520 nM: IC50 (second compound 0.316 µM)
< 31.6 nM: IC50 (second compound 10 µM)
33.7 nM: IC50 (second compound 3.16 µM)
active: viability, T/C [24] 9.03%
6000 nM: IC50 (second compound 0.1 µM)

CCCS(=O)(=O)Nc1ccc(F)c(C(=O)c2c[nH]c3ncc(-c4ccc(Cl)cc4)cc23)c1F + CC(C)NCC(C(=O)N1CCN(c2ncnc3c2C(C)CC3O)CC1)c1ccc(Cl)cc1
> 10000 nM: IC50 (second compound 0.1 µM) | IC50 (second compound 0.316 µM) | IC50 (second compound 1 µM) | IC50 (second compound 3.16 µM)
active: viability, T/C [30] 9.37%
31.6 nM: IC50 (second compound 10 µM)
inactive: viability, T/C [1] 97% | viability, T/C [2] 90% | viability, T/C [3] 90.3% | viability, T/C [4] 98.8% | viability, T/C [5] 98.5% | viability, T/C [6] 101% | viability, T/C [7] 85.4% | viability, T/C [8] 76.6% | viability, T/C [9] 86.3% | viability, T/C [10] 76.5% | viability, T/C [11] 80.2% | viability, T/C [12] 85.2% | viability, T/C [13] 73.2% | viability, T/C [14] 70.3% | viability, T/C [15] 69.1% | viability, T/C [16] 64.5% | viability, T/C [17] 71.3% | viability, T/C [18] 76.6% | viability, T/C [19] 59.4% | viability, T/C [20] 60.1% | viability, T/C [21] 53.5% | viability, T/C [22] 52.7% | viability, T/C [23] 79.8% | viability, T/C [24] 60% | viability, T/C [25] 43.4% | viability, T/C [26] 42.7% | viability, T/C [27] 44.1% | viability, T/C [28] 52.4% | viability, T/C [29] 53.7%
